Results on five compounds are retold here after patent US11873298B2, “Compounds and uses thereof” (JANSSEN PHARMACEUTICA NV, priority 2017, dated 2024).

A value given as a limit tells only on which side of the number the result lay.

The target in one assay is T1, SCD1 (Homo sapiens, UniProt O00767).
T1 construct: host or cells: S. cerevisiae ole1Δ strain (W303 pdr1Δ pdr3Δ background), plasmid pRS316 with TDH3 promoter and CYC1 terminator
T1 sequence (O00767 1-359): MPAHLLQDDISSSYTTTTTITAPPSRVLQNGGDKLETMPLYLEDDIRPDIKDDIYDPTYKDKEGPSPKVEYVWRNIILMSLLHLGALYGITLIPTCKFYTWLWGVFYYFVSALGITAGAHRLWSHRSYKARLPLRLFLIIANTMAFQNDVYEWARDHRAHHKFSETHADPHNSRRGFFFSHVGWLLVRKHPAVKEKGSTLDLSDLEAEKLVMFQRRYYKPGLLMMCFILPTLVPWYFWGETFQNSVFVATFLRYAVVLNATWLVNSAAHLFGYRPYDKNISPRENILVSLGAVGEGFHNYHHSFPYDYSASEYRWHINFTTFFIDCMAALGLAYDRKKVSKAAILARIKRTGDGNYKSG
Kind of assay: Growth inhibition of humanized yeast strain expressing SCD1 as sole desaturase. It is filed as cell-based. As to conditions: humanized yeast strain expressing SCD1. The method in brief: (§1)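 Yeast ole1Δ strain (W303 pdr1Δ pdr3Δ background) carrying plasmid-borne Ole1, SCD1 or SCD5 as sole desaturase was grown in uracil-lacking media, pre-cultured in raffinose for 6 h, then seeded in galactose medium with compound in DMSO. Growth was read as OD600 after 30° C. incubation: 24 h for Ole1, 40 h for SCD1/SCD5.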

In assay [1] the test system is yeast strains expressing the human ApoE4. Kind of assay: Yeast ApoE4 toxicity rescue assay (OD600 growth). Particulars: 24 h; for EC50: read-out: ApoE4 EC50; for Emax: read-out: ApoE4 Emax.
Source text: The induced expression of α-synuclein and ApoE4 confers cytotoxicity, thus enabling the identification of compounds that can restore cell viability. This instantaneous/synchronous induction of α-synuclein and ApoE4 can be achieved due to the following expression control. In glucose-containing media, gene expression from the GAL1 promoter is ‘off’ and actively repressed by additional epigenetic factors. In raffinose, expression is ‘off’, but the promoter not actively repressed. Upon transition to galactose-containing media, the promoter is instantaneously turned ‘on’ to achieve robust and synchronous induction of α-synuclein or ApoE4 expression. This highly regulated induction provides a robust window for the determination of both efficacy (amplitude of protective effect) and potency (concentration of protective effect) of cytoprotective compounds.
Re-suspended compound stocks were subsequently arrayed into 384 well compound plates using automated pipetting. All other wells not receiving stock compound were filled with 10 μL of 100% DMSO using an automated plate filler (Multidrop Combi). An 11 point, 2-fold serial dilution was then performed using the robotic platform. Compound assay plates were covered with foil and stored at −20° C. until use.
Each strain was handled according to standard protocols and cultured in media composed of CSM (complete synthetic media), YNB (yeast nitrogenous base), and a 2% (w/v) carbon source (either glucose, raffinose, or galactose).
In a standard yeast assay, a single-use aliquot of cells was thawed on ice and diluted into CSM/glucose (5 mL). Cultures were grown for 8 hours at 30° C. This pre-growth enables the yeast to exit the thaw and begin to grow without expressing aSyn or ApoE4. After 8 hours, cell density (OD600) was determined and cultures diluted to an OD600 of 0.01 in CSM/raffinose for an overnight culture phase at 30° C. During this period, the active glucose repression of the GAL1 promoter was relieved; however, expression of the α-Syn/ApoE4 genes were not yet induced. After ˜16 hours of growth, cultures attain an OD600 of 0.4-0.8 and were ready to apply to assay plates containing compound.
Compound profiling assays were executed in clear-bottom 384 well plates. First, compound plates were thawed at room temperature for 45′, centrifuged at 1,000×g for 1 minute, and the foil removed. Clear 384 well assay plates were then filled with 15 μL of CSM/galactose. […] The pin tool was washed iteratively with both 50% DMSO and 100% ethanol between each assay plate. After delivering compound to each assay plate, the overnight CSM/raffinose aSyn or ApoE4 cultures were added at a 2X cell density (0.04 for aSyn and 0.08 for ApoE4) in CSM/galactose to achieve a final assay OD600 of 0.02 and 0.04 for aSyn and ApoE, respectively. The cultures (15 μL per well) were then dispensed to the compound -containing 384 well assay plates using an automated plate filler. Plates were incubated in a humidified 30° C. incubator for 40 or 24 hours for aSyn and ApoE4, respectively. The ODsoo of each assay plate was then read with a microplate reader (e.g., Perkin Elmer Envision).
The efficacy and potency of compounds were calculated according to the following. Raw data (OD600 values) were first background corrected to account for OD600 contributed by the plate and media itself. The efficacy (percent above DMSO, herein referred to as “Emax”) was calculated according to the equation: (Experimental well−DMSO control well)/(DMSO control well)*100. […] Normalized dose-response data was fit with a logistic regression curve using Spotfire (TIBCO), or similar curve-fitting software package. EC50 values were then reported along with EMax to provide both efficacy and potency measures for each analog and enable further compound design.
The test system of assay [2] is yeast strains expressing the human α-synuclein. Kind of assay: Yeast α-synuclein toxicity rescue assay (OD600 growth). Particulars: 40 h; for EC50: read-out: α-Syn EC50; for Emax: read-out: α-Syn Emax.
The next assay deals with T2, Ole1 (Saccharomyces cerevisiae, UniProt P21147).
T2 construct: expressed in transfected cells; host or cells: S. cerevisiae ole1Δ strain (W303 pdr1Δ pdr3Δ background), plasmid pRS316 with TDH3 promoter and CYC1 terminator
T2 sequence (P21147 1-510): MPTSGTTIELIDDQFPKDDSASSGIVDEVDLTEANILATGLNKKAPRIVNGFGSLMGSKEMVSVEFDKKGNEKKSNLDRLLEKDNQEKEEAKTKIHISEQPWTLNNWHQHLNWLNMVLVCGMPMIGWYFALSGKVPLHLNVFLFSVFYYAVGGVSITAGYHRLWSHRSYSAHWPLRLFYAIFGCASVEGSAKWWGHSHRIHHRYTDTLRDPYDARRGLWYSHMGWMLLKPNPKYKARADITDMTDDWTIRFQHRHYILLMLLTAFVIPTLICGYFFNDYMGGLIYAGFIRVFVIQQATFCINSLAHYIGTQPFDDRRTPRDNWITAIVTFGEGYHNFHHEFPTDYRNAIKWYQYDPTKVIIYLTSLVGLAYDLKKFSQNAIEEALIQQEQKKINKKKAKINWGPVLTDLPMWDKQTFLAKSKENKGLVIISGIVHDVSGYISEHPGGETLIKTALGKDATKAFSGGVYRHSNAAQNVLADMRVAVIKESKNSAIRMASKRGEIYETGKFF
Kind of assay: Growth inhibition of yeast strain expressing Ole1 as sole desaturase. In kind it is cell-based. As to conditions: yeast strain expressing Ole1 as sole desaturase. The method in brief: as §1

In the next assay the target is T3, SCD5 (Homo sapiens, UniProt Q86SK9).
T3 construct: host or cells: S. cerevisiae ole1Δ strain (W303 pdr1Δ pdr3Δ background), plasmid pRS316 with TDH3 promoter and CYC1 terminator
T3 sequence (Q86SK9 1-330): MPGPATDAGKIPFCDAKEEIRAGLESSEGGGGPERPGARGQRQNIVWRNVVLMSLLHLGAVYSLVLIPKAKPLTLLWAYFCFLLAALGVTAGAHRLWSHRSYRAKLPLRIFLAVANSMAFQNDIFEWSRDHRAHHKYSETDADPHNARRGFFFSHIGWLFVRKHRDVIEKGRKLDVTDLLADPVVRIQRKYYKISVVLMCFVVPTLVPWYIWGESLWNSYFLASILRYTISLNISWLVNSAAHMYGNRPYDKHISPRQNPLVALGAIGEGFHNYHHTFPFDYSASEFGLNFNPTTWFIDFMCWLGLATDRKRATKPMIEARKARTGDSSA
Kind of assay: Growth inhibition of humanized yeast strain expressing SCD5 as sole desaturase. In kind it is cell-based. As to conditions: humanized yeast strain expressing SCD5. A digest of the protocol: as §1

A word on the IC50: it is the point on the concentration scale where inhibition reaches its midpoint. A low value points to higher potency. For orientation: EC50 means the concentration needed to bring the measured effect to its halfway point. `CCOc1ccc(-c2noc(C3CCN(C(=O)CNC(=O)c4ccccc4)CC3)n2)cc1OC` [Compound 155]: on SCD1, the half-inhibitory concentration (IC50) is greater than 45 µM and the “SCD1 % Max Inhibition” value came out at 98.25%. Besides, in assay [1], the EC50 is 2.16 µM and the Emax was 865%. Moreover, in assay [2], the concentration giving a half-maximal response (EC50) turned out to be 0.011 µM and the Emax worked out at 556%. The “OLE1 % Max Inhibition” value on Ole1 was found to be 1.65%. On SCD5, half-maximal inhibition (IC50) was put at 33.8 µM and the “SCD5 % Max Inhibition” value is 67.35%.
For `O=C(NCC(=O)N1CCC(c2nc(-c3ccc(Cl)c(Cl)c3)no2)CC1)c1ccccc1` [compound 23], the IC50 against SCD1 is 33.6 µM; at Ole1, greater than 45 µM; against SCD5 it was greater than 45 µM. In addition, the concentration for a half-maximal effect (EC50) in assay [1] was 6.51 µM; in assay [2], 7.68 µM. The Emax in assay [1] came out at 466%; in assay [2] it was 182%.
`Cc1cccc(-c2nc(C3CCN(C(=O)C4CC(=O)N(c5ccc(C)c(C)c5)C4)CC3)no2)c1` (stereo not shown) [Compound 51]: at SCD1, the 50% inhibitory concentration (IC50) was greater than 45 µM and the “SCD1 % Max Inhibition” value is listed as 76.83%. The Emax in assay [1] worked out at 286%. Further, in assay [2], the EC50 stood at 10.9 µM and the Emax is 137%. At Ole1, the 50% inhibitory concentration (IC50) was greater than 45 µM and the “OLE1 % Max Inhibition” value is listed as 102.56%. For the same compound, on SCD5, the IC50 is greater than 45 µM and the “SCD5 % Max Inhibition” value was found to be 6.59%.
For the compound `O=C(NCC(=O)N1CCC(c2nc(-c3ccccc3F)no2)CC1)c1ccccc1` [Compound 43], at SCD1, the half-maximal inhibitory concentration (IC50) was greater than 45 µM and the “SCD1 % Max Inhibition” value is 76.52%. Moreover, in assay [1], the EC50 is 17.7 µM and the Emax came to 517%. In assay [2], the EC50 came to 14.6 µM and the Emax is 222%. In addition, at Ole1, the IC50 is greater than 45 µM and the “OLE1 % Max Inhibition” value was determined as 107.35%. Moreover, on SCD5, the 50% inhibitory concentration (IC50) is greater than 45 µM and the “SCD5 % Max Inhibition” value came to 65.66%.
Regarding `Cc1ccc(-c2nc(C3CCN(C(=O)C4CC(=O)N(c5ccc(C)c(C)c5)C4)CC3)no2)cc1` (stereo not shown) [Compound 50], the “SCD1 % Max Inhibition” value on SCD1 was 67.05%. The Emax in assay [1] stood at 133%. In addition, in assay [2], the EC50 was 7.86 µM and the Emax stood at 85%. Also, on Ole1, the IC50 is greater than 45 µM and the “OLE1 % Max Inhibition” value was 98.10%. Moreover, on SCD5, the IC50 is greater than 45 µM and the “SCD5 % Max Inhibition” value came out at 46.80%.
